Among the data in PubChem BioAssay AID493146 (Sanford-Burnham Center for Chemical Genomics, 2011) are EC50 values, retold here.

The target in this assay is intestinal alkaline phosphatase (Alpi), Mus musculus. Kind of assay: murine Alpi activation by analogs – biochemical, luminescence, SAR follow-up (AID 493146). Conditions: purified mouse IAP, luminescent substrate.

Molecules are shown by their SMILES. Calls of active or inactive are those of the source. How the calls were made is not given here.

In the case of `N#Cc1cccc(NC(=O)CSc2sc3c(O)cc(=O)[nH]c3c2C#N)c1`, the EC50 is > 100 µM (inactive). To `O=C(N/N=C/C1CC2CCC1C2)c1cc(O)c(O)c(O)c1` (stereo not drawn) belongs > 100 µM (inactive). To `COc1cc(C(=O)NNC(=S)NC(=O)c2ccccc2C)cc(OC)c1OC` belongs > 100 µM (inactive). `COc1cc(C(=O)NN=Cc2ccccn2)cc(OC)c1OC`: the EC50 is > 100 µM (inactive).

As for `Cc1ccc(NC(=O)CCNS(=O)(=O)c2ccc3[nH]c(=O)oc3c2)cc1`, the EC50 is > 100 µM (inactive). As for `N#Cc1c(SCC(=O)Nc2cccc(F)c2)sc2c(O)cc(=O)[nH]c12`, the EC50 was > 100 µM (inactive). To `O=C(c1ccco1)N1CCN(S(=O)(=O)c2ccc3[nH]c(=O)oc3c2)CC1` belongs > 100 µM (inactive); to `O=C(NNC(=O)c1cc(O)c(O)c(O)c1)NC1CCCCC1`, > 100 µM (inactive); to `O=C(N/N=C/c1ccco1)c1cc(O)c(O)c(O)c1`, > 100 µM (inactive). To `O=C(N/N=C/c1ccccc1F)c1cc(O)c(O)c(O)c1` belongs > 100 µM (inactive); to `CC(C)N1CCC(=NNC(=O)c2cc(O)c(O)c(O)c2)CC1`, > 100 µM (inactive). `COc1ccc(NC(=S)NCCC(c2ccccc2)c2ccccc2)cc1`: the EC50 was 37.7 µM. Next, `CCOC(=O)N1CCC(NC(=O)CSc2sc3c(O)cc(=O)[nH]c3c2C#N)CC1`: > 100 µM (inactive); `COc1ccc(NC(=O)CCNS(=O)(=O)c2ccc3[nH]c(=O)oc3c2)cc1Cl`: > 100 µM (inactive); `O=C(CCNS(=O)(=O)c1ccc2[nH]c(=O)oc2c1)Nc1ccccc1`: > 100 µM (inactive). To `O=C(CN1C(=O)/C(=C/c2ccco2)SC1=S)Nc1ccc(C(=O)O)c(O)c1` belongs > 100 µM (inactive). Next, `COc1cccc(/C=N/NC(=O)c2cc(O)c(O)c(O)c2)c1`: > 100 µM (inactive); `CC(C(=O)NCCc1ccc(O)c(O)c1)N1C(=O)/C(=C\c2ccco2)SC1=S` (stereo not drawn): > 100 µM (inactive); `O=C(CCCN1C(=O)/C(=C/c2ccco2)SC1=S)Nc1ccccc1`: > 100 µM (inactive). On to `N#Cc1c(SCC(=O)Nc2nccs2)sc2c(O)cc(=O)[nH]c12`, for which the EC50 was > 100 µM (inactive). Turning to `CC(C(=O)Nc1ccccc1C(=O)O)N1C(=O)/C(=C\c2ccco2)SC1=S` (stereo not drawn), the EC50 was > 100 µM (inactive). `CCOc1ccccc1CNC(=O)CCNS(=O)(=O)c1ccc2[nH]c(=O)oc2c1`: the EC50 was > 100 µM (inactive). To `COc1ccccc1NC(=O)CSc1sc2c(O)cc(=O)[nH]c2c1C#N` belongs > 100 µM (inactive); to `CC(C(=O)Nc1ccc(C(=O)O)c(O)c1)N1C(=O)/C(=C\c2ccco2)SC1=S` (stereo not drawn), > 100 µM (inactive); to `CN1CCC(=NNC(=O)c2cc(O)c(O)c(O)c2)CC1`, > 100 µM (inactive). To `COc1cc(C(=O)NNC(=O)c2n[nH]c3ccccc23)cc(OC)c1OC` belongs > 100 µM (inactive). To `O=C(CN1C(=O)/C(=C/c2ccco2)SC1=S)Nc1ccc(O)c(C(=O)O)c1` belongs > 100 µM (inactive). With `O=C(C1CCN(S(=O)(=O)c2ccc3[nH]c(=O)oc3c2)CC1)N1CC=C(c2ccccc2)CC1`, the EC50 was > 100 µM (inactive). To `Cc1ccc(C)c(NC(=O)CCNS(=O)(=O)c2ccc3[nH]c(=O)oc3c2)c1` belongs > 100 µM (inactive); to `FC(F)(F)c1cccc(NC(=S)NCCC(c2ccccc2)c2ccccc2)c1`, 82.3 µM.

As for `COc1ccc(NC(=O)CSc2sc3c(O)cc(=O)[nH]c3c2C#N)c(OC)c1`, the EC50 is > 100 µM (inactive).

Take `CC(C(=O)Nc1ccc(C(=O)O)cc1)N1C(=O)/C(=C\c2ccco2)SC1=S` (stereo not drawn): the EC50 was > 100 µM (inactive). Consider `S=C(NCCC(c1ccccc1)c1ccccc1)Nc1ccc(Cl)cc1Cl`, for which the EC50 was 7.1 µM. For the compound `N#Cc1c(SCC(=O)Nc2ccccc2C(F)(F)F)sc2c(O)cc(=O)[nH]c12`, the EC50 was > 100 µM (inactive). To `O=C(CN1C(=O)/C(=C\c2ccco2)SC1=S)Nc1ccccc1C(=O)O` belongs > 100 µM (inactive). Consider `COc1cccc(CNC(=O)CCNS(=O)(=O)c2ccc3[nH]c(=O)oc3c2)c1`, for which the EC50 is > 100 µM (inactive). On to `NS(=O)(=O)c1ccc(-c2ccc(/C=C3\SC(=S)N(C4CCS(=O)(=O)C4)C3=O)o2)cc1` (stereo not drawn), for which the EC50 is > 100 µM (inactive). Next, `O=C(CCNS(=O)(=O)c1ccc2[nH]c(=O)oc2c1)Nc1cccc(-c2ccno2)c1`: > 100 µM (inactive); `COc1cc(C(=O)NNc2nc3cc4c(cc3s2)OCO4)cc(OC)c1OC`: > 100 µM (inactive).

`CC(C(=O)NCCc1ccc(O)cc1)N1C(=O)/C(=C/c2ccco2)SC1=S` (stereo not drawn): the EC50 was > 100 µM (inactive). Next, `CC(C(=O)N(C)C1CCS(=O)(=O)C1)N1C(=O)/C(=C/c2ccco2)SC1=S` (stereo not drawn): > 100 µM (inactive). With `O=C(CN1C(=O)/C(=C/c2ccco2)SC1=S)NCCc1ccc(O)cc1`, the EC50 was > 100 µM (inactive). Consider `COC(=O)c1ccc(C)c(NC(=O)CSc2sc3c(O)cc(=O)[nH]c3c2C#N)c1`, for which the EC50 was > 100 µM (inactive). As for `O=C(N/N=C/c1ccc(F)cc1)c1cc(O)c(O)c(O)c1`, the EC50 was > 100 µM (inactive). To `O=S(=O)(Nc1ncccn1)c1ccc(NC(=S)NCCC(c2ccccc2)c2ccccc2)cc1` belongs > 100 µM (inactive); to `O=C(CCN1C(=O)/C(=C/c2ccco2)SC1=S)Nc1ccc(C(=O)O)c(O)c1`, > 100 µM (inactive). Next, `CCSc1nnc(NC(=O)CSc2sc3c(O)cc(=O)[nH]c3c2C#N)s1`: > 100 µM (inactive); `O=C(CN1C(=O)/C(=C/c2ccco2)SC1=S)Nc1cccc(C(=O)O)c1`: > 100 µM (inactive); `O=C(N/N=C/C1CC=CCC1)c1cc(O)c(O)c(O)c1` (stereo not drawn): > 100 µM (inactive). To `CC(C)C(C(=O)NC1CCS(=O)(=O)C1)N1C(=O)/C(=C\c2ccco2)SC1=S` (stereo not drawn) belongs > 100 µM (inactive); to `CCOc1cccc(NC(=O)CSc2sc3c(O)cc(=O)[nH]c3c2C#N)c1`, > 100 µM (inactive).

For the compound `C/C(=N\NC(=O)c1cc(O)c(O)c(O)c1)c1ccncc1`, the EC50 is > 100 µM (inactive). Next, `COc1ccc(CNC(=O)CSc2sc3c(O)cc(=O)[nH]c3c2C#N)cc1OC`: > 100 µM (inactive); `N#Cc1c(SCC(=O)Nc2nncs2)sc2c(O)cc(=O)[nH]c12`: > 100 µM (inactive); `O=C(NCCc1ccc(Cl)cc1)C1CCCN(S(=O)(=O)c2ccc3[nH]c(=O)oc3c2)C1` (stereo not drawn): > 100 µM (inactive). To `O=C(CN1C(=O)/C(=C/c2ccco2)SC1=S)Nc1ccc(C(=O)O)cc1` belongs > 100 µM (inactive). `Cc1ccc(Cl)cc1NC(=O)CSc1sc2c(O)cc(=O)[nH]c2c1C#N`: the EC50 is > 100 µM (inactive). Next, `Cc1ccc(NC(=O)CCNS(=O)(=O)c2ccc3[nH]c(=O)oc3c2)c(C)c1`: > 100 µM (inactive).

A word on the EC50: it is the midpoint of the concentration-response curve.
